Among the data in ChEMBL document CHEMBL3132769, “Fragment growing to retain or alter the selectivity of anchored kinase hinge-binding fragments” (Medchemcomm, 2014) are inhibition values, retold here.

Experiment [1] concerns the target Insulin receptor (Homo sapiens) (UniProt P06213). Briefly: Inhibition of human INSR catalytic domain expressed in baculovirus assessed as substrate phosphorylation using fluorescence-labelled peptides as substrate at 8 uM after 90 mins by microfluidic peptide phosphorylation assay.
Experiment [2] deals with Ribosomal protein S6 kinase alpha-2 (Homo sapiens) (UniProt Q15349). Kind of experiment: Inhibition of human full length RSK3 expressed in baculovirus assessed as substrate phosphorylation using fluorescence-labelled peptides as substrate at 0.1 uM after 90 mins by microfluidic peptide phosphorylation assay.
Chain of Ribosomal protein S6 kinase alpha-2 (Homo sapiens) (Q15349 whole entry, the tested form may be a part): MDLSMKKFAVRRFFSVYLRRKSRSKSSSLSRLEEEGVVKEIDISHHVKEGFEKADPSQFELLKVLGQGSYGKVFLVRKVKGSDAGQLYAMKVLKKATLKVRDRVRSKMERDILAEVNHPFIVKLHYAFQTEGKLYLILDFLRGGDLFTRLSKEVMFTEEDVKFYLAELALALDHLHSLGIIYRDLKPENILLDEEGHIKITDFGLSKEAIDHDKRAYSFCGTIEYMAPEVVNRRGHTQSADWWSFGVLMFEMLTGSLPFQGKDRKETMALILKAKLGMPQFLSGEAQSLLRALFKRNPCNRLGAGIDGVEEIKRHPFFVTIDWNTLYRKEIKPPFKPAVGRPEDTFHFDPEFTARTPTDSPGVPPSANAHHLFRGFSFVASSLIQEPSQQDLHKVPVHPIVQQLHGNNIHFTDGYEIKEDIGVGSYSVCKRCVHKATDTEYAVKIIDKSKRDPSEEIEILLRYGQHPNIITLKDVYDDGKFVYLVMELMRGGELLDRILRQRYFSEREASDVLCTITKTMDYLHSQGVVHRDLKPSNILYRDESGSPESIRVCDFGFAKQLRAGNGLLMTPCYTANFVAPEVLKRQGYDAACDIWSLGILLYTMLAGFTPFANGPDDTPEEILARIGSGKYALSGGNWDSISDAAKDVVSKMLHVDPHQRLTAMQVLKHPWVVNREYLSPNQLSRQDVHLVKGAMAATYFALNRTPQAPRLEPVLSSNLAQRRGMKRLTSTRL
Experiment [3] addresses Epidermal growth factor receptor (Homo sapiens) (UniProt P00533). Kind of experiment: Inhibition of human EGFR catalytic domain expressed in baculovirus assessed as substrate phosphorylation using fluorescence-labelled peptides as substrate at 0.06 uM after 90 mins by microfluidic peptide phosphorylation assay.
Experiment [4] concerns the target Serine/threonine-protein kinase pim-1 (Homo sapiens) (UniProt P11309). Kind of experiment: Inhibition of human full length PIM1 expressed in baculovirus assessed as substrate phosphorylation using fluorescence-labelled peptides as substrate at 0.06 uM after 90 mins by microfluidic peptide phosphorylation assay.
Experiment [5] addresses T1, cGMP-dependent protein kinase 1 (Homo sapiens) (UniProt Q13976).
T1 sequence (whole entry): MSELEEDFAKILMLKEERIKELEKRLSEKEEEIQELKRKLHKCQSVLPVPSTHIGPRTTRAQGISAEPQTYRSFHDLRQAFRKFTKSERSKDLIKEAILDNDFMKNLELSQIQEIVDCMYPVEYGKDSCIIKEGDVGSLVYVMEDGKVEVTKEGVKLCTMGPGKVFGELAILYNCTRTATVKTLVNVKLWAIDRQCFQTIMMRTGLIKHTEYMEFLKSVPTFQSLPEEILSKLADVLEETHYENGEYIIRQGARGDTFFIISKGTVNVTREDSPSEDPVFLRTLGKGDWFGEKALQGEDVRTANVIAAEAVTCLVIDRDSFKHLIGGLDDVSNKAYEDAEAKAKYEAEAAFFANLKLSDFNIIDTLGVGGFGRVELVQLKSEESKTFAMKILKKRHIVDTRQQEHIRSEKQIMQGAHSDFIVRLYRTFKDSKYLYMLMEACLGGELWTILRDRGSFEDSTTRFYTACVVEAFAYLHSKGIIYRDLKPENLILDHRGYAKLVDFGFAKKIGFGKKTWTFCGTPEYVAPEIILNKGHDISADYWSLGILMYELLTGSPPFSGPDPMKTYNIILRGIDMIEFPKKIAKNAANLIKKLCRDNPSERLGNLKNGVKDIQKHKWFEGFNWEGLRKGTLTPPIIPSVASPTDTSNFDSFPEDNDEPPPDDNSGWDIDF
Kind of experiment: Inhibition of human full length PKG-1beta expressed in baculovirus assessed as substrate phosphorylation using fluorescence-labelled peptides as substrate at 0.2 uM after 90 mins by microfluidic peptide phosphorylation assay.

The target of experiment [6] is T2, Serine/threonine-protein kinase D3 (Homo sapiens) (UniProt O94806).
T2 sequence (whole entry): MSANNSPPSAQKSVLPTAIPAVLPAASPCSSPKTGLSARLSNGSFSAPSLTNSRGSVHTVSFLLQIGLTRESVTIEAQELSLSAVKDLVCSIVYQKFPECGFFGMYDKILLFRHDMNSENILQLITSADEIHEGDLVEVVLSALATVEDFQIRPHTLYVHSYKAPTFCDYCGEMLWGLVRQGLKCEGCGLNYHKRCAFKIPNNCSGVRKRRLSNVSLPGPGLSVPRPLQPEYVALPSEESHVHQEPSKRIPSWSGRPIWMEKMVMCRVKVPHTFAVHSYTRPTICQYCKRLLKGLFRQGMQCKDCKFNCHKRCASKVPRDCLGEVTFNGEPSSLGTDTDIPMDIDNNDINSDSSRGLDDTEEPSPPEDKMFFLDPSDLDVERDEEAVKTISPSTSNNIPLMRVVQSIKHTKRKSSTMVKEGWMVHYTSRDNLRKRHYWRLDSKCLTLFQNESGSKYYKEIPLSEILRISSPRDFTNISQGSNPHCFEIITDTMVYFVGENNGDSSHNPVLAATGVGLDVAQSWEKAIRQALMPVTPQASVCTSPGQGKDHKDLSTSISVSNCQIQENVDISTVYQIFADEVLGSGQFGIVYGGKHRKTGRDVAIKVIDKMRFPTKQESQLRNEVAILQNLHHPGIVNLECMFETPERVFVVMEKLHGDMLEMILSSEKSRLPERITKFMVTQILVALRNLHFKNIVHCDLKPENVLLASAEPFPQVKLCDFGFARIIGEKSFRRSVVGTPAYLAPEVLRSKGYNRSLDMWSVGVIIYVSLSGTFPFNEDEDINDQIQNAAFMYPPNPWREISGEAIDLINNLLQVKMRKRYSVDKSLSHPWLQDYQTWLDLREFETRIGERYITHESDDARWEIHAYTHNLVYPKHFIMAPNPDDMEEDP
Briefly: Inhibition of human full length PKD3 expressed in baculovirus assessed as substrate phosphorylation using fluorescence-labelled peptides as substrate at 70 uM after 90 mins by microfluidic peptide phosphorylation assay.

Experiment [7] concerns the target Ribosomal protein S6 kinase alpha-3 (Homo sapiens) (UniProt P51812). Kind of experiment: Inhibition of human full length RSK2 expressed in baculovirus assessed as substrate phosphorylation using fluorescence-labelled peptides as substrate at 70 uM after 90 mins by microfluidic peptide phosphorylation assay.
For experiment [8], the target named is Mitogen-activated protein kinase 1 (Homo sapiens) (UniProt P28482). Briefly: Inhibition of human full length ERK2 expressed in Escherichia coli cell assessed as substrate phosphorylation using fluorescence-labelled peptides as substrate at 2 uM after 90 mins by microfluidic peptide phosphorylation assay.
Chain of Mitogen-activated protein kinase 1 (Homo sapiens) (P28482 whole entry, the tested form may be a part): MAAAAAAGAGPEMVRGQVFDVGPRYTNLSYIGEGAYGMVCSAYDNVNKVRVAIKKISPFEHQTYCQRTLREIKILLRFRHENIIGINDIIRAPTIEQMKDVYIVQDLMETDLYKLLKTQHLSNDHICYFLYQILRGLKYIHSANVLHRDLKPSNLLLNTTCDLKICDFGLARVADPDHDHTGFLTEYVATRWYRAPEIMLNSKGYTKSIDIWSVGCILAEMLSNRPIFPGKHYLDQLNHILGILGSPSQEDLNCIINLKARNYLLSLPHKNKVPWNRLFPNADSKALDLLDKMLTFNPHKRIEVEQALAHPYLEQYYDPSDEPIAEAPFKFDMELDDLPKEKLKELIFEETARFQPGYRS
The target of experiment [9] is Tyrosine-protein kinase Fer (Homo sapiens) (UniProt P16591). Kind of experiment: Inhibition of human FER catalytic domain expressed in baculovirus assessed as substrate phosphorylation using fluorescence-labelled peptides as substrate at 95 uM after 90 mins by microfluidic peptide phosphorylation assay.
Chain of Tyrosine-protein kinase Fer (Homo sapiens) (P16591 whole entry, looked up, the tested form may be a part): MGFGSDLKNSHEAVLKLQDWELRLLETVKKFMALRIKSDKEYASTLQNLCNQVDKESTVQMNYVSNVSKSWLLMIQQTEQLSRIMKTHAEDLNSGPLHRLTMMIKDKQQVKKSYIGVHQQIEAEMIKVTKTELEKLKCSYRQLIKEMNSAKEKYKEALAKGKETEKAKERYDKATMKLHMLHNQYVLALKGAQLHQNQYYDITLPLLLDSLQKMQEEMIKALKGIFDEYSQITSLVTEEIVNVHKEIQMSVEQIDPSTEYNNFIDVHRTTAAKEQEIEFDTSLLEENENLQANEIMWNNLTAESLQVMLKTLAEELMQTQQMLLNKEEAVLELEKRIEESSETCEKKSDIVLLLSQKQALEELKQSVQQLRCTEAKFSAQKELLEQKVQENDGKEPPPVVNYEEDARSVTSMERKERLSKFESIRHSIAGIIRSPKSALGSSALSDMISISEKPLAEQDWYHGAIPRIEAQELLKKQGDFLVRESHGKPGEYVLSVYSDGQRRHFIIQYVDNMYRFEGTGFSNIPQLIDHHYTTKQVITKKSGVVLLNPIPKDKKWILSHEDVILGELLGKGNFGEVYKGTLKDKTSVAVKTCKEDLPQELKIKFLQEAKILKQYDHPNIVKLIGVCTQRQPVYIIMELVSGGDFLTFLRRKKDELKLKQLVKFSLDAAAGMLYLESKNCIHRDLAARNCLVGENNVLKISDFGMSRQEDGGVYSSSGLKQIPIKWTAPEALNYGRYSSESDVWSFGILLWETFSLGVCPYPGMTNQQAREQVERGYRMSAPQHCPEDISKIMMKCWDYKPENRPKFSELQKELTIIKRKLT

Chain of Ribosomal protein S6 kinase alpha-3 (Homo sapiens) (P51812 whole entry): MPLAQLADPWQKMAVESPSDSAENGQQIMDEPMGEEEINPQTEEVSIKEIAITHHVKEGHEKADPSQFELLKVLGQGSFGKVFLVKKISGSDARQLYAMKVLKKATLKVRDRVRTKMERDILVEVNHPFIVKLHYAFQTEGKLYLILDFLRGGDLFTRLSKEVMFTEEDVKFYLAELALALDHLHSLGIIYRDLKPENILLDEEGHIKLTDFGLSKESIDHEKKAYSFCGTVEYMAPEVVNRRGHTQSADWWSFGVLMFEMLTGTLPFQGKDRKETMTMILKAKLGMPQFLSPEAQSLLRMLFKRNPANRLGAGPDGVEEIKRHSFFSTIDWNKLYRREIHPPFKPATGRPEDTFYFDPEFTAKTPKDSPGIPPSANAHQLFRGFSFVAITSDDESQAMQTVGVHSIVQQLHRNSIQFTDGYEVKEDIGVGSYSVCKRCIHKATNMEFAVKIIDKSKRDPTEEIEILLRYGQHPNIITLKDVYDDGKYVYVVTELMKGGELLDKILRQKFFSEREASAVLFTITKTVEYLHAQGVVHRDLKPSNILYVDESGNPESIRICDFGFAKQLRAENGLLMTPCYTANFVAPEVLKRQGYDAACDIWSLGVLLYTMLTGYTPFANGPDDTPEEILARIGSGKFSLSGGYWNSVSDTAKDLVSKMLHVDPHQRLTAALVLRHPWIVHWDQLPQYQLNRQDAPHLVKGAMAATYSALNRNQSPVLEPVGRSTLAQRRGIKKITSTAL
Chain of Serine/threonine-protein kinase pim-1 (Homo sapiens) (P11309 whole entry, looked up): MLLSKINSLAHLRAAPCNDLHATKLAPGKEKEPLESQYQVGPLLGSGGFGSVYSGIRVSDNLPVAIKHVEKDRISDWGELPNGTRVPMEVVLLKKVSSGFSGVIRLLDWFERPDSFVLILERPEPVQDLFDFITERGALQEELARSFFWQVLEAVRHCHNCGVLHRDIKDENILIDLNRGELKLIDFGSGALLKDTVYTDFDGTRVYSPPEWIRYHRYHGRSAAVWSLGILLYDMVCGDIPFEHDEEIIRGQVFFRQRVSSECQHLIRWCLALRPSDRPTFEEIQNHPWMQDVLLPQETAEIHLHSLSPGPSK
Chain of Epidermal growth factor receptor (Homo sapiens) (P00533 whole entry, the tested form may be a part): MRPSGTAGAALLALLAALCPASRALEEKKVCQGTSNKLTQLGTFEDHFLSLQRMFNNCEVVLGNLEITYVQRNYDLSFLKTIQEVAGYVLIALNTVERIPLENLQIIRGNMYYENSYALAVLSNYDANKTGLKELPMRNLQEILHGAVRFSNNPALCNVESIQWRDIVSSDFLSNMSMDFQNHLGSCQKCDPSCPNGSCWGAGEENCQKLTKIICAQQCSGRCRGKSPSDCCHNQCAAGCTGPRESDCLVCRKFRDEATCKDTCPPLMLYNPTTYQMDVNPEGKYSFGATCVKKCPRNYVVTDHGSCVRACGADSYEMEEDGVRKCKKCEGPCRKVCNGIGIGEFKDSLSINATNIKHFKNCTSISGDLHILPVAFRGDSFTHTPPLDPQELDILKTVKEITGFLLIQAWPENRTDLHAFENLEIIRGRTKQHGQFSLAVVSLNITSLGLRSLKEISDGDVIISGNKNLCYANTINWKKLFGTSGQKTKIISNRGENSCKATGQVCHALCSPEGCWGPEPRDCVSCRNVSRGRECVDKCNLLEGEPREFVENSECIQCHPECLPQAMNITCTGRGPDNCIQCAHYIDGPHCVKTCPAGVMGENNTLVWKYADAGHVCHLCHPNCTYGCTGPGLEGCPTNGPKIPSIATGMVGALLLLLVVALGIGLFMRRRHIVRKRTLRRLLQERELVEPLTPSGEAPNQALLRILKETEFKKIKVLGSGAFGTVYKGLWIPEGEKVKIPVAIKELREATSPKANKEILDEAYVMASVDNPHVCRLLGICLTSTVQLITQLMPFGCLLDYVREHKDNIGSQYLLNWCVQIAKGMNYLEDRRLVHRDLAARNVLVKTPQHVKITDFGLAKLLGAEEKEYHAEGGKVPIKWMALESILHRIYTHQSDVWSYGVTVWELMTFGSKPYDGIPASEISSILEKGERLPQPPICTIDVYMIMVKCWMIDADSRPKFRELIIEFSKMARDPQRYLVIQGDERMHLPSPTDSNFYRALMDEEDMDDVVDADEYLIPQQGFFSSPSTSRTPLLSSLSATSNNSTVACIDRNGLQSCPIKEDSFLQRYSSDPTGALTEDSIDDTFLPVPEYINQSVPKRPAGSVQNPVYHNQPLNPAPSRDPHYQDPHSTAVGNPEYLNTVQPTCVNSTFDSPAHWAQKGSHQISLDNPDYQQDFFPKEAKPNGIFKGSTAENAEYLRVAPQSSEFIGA

In general, inhibition refers to the drop in the measured response relative to a control, in per cent. For `NCC1CCN(c2ncnc3[nH]ccc23)CC1`, in [1], the inhibition amounted to 16.5%.

For the compound `C[C@H](CN(C)C)Oc1nc(Nc2cc3cccc(Cl)c3cn2)cnc1C#N`, the inhibition in experiment [2] came to 60.5%.

For `NC1(Cc2ccc(Cl)cc2)CCN(c2ncnc3[nH]ccc23)CC1`, the inhibition in experiment [3] and in experiment [4] was 0% each time.

Regarding `Clc1ccc(C2(c3ccc(-c4ncnc5[nH]cnc45)cc3)CCNCC2)cc1`, the inhibition in experiment [5] is 88.5%.

With `CNCc1ccc(-c2ncnc3[nH]cnc23)cc1`, the inhibition was found to be 72.5% in experiment [6] and 75% in experiment [7].

For the compound `NC1CCN(c2ncnc3[nH]ccc23)CC1`, in [8], the inhibition was determined as 2.5%.

Turning to `NCCc1ccc(-c2ncnc3[nH]cnc23)cc1`, the inhibition in experiment [9] turned out to be 28%.
